The record followed here is patent US8648086B2, “5,6-bicyclic heteroaryl-containing urea compounds as kinase inhibitors” (Ascepion Pharmaceuticals, Inc., priority 2009, dated 2014).

Molecules are shown by their SMILES.

Assay [1] addresses T1, VEGFR2 (Homo sapiens, UniProt P35968).
T1 construct: expressed in transfected cells; host or cells: CHO cells, pcDNA3.1 plasmid
The experiment in a line: VEGFR2 cell-based assay (phospho-VEGFR2 ELISA, transfected CHO cells). The following applies: compound at 100 nM, read-out: % VEGFR2 kinase activity remains. Put shortly: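 Serum-starved CHO cells transfected with full-length VEGFR2 treated 2 h with compound (0.5–500 nM), then stimulated with 20% FBS. Lysates analyzed by ELISA for phospho- and total VEGFR2 using streptavidin-HRP chemiluminescence.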
For orientation: In an ELISA, binding on a coated surface is turned into a signal by an enzyme label.

Assay [2] has as its target T2, c-Met (Homo sapiens, UniProt P08581).
T2 construct: endogenous in cells; host or cells: A549 cells
The assay is described as follows: c-Met cell-based assay (phospho-c-Met ELISA, A549 cells). The following applies: compound at 100 nM. Put shortly:
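Serum-starved A549 cells (NSCLC) pretreated 2 h with compound (0.5 nM to 500 nM), then stimulated 20 min with 20% FBS. Lysates analysed by ELISA for phospho-c-Met and total c-Met with streptavidin-HRP chemiluminescence.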

The test system of assay [3] is MDA-MB-231 human breast cancer cells. The assay is described as follows: In vivo anti-tumor efficacy, MDA-MB-231 xenograft. The conditions noted are these: Breast cancer MDA-MB-231, nu/nu Balb/c mice. As to the method: (§1) Female (nu/nu) Balb/c athymic mice at 4-6 weeks of age were injected subcutaneously (s.c.) with MDA-MB-231 human breast cancer cells, A549 human non-small cell lung cancer cells, U87-MG human glioblastoma cells, PC-3 human prostate cancer cells, HT-29 human colon cancer, BEL-7404 human hepatocellular carcinoma, or MKN-45 human gastric cancer cells (ATCC, 5×10^6 cells suspended in 100 μl DMEM medium). Treatment was initiated after the tumor mass grown from s.c. implanted tumor cells reached a median volume of 200-400 mm^3. Mice were randomized into groups with three in each group for small-sample efficacy tests such that the median tumor volume is nearly equal among all groups. For large-sample efficacy tests, mice were randomized into groups with thirteen or fourteen in each group. Each group was treated either with compounds (dissolved in 2:1 mixture of PEG400 and 0.01N HCl (v/v)) or without compounds (vehicle only, 2:1 mixture of PEG400 and 0.01N HCl (v/v)) once per day at dose 12.5, 25, 50 or 100 mg/kg by oral gavage. Tumor volumes were assessed at least twice weekly by caliper measurement from the start of treatment. Tumor volume was calculated using the formula ½×L×W^2 (L: length of tumor's long axis, W: length of tumor's short axis). Treatment was applied for at least two weeks or until the tumor volume reaches a size of ˜2500 mm^3 or greater. Mice were humanly sacrificed after the experiment.
The efficacy of compounds in reducing tumor growth was assessed by the index Tumor Growth Inhibition (TGI). TGI for a given treatment period was calculated using the group mean tumor volumes according to the formula: TGI=100×(VVehicle—group−VTreatment—group)÷VVehicle—group wherein VVehicle—group represents the mean tumor volume for the group treated with vehicle and VTreatment—group represents the mean tumor volume of the group treated with a compound.

The subject of assay [4] is MKN-45 human gastric cancer cells. The experiment in a line: In vivo anti-tumor efficacy, MKN-45 xenograft. The conditions noted are these: Gastric cancer MKN-45, nu/nu Balb/c mice. As for the experimental part: as §1, with “experiment. The efficacy of compounds in reducing tumor growth was assessed by the index Tumor Growth Inhibition (TGI). TGI for a given treatment period was calculated using the group mean tumor volumes according to the formula: TGI=100×(VVehicle—group−VTreatment—group)÷VVehicle—group wherein VVehicle—group represents the mean tumor volume for the group treated with vehicle and VTreatment—group represents the mean tumor volume of the group treated with a compound.” for “experiment.”

Where [5] appears, read: 50 mg/kg oral once per day, n = 2 × 3.

T1 sequence (P35968 20-1356, species assumed): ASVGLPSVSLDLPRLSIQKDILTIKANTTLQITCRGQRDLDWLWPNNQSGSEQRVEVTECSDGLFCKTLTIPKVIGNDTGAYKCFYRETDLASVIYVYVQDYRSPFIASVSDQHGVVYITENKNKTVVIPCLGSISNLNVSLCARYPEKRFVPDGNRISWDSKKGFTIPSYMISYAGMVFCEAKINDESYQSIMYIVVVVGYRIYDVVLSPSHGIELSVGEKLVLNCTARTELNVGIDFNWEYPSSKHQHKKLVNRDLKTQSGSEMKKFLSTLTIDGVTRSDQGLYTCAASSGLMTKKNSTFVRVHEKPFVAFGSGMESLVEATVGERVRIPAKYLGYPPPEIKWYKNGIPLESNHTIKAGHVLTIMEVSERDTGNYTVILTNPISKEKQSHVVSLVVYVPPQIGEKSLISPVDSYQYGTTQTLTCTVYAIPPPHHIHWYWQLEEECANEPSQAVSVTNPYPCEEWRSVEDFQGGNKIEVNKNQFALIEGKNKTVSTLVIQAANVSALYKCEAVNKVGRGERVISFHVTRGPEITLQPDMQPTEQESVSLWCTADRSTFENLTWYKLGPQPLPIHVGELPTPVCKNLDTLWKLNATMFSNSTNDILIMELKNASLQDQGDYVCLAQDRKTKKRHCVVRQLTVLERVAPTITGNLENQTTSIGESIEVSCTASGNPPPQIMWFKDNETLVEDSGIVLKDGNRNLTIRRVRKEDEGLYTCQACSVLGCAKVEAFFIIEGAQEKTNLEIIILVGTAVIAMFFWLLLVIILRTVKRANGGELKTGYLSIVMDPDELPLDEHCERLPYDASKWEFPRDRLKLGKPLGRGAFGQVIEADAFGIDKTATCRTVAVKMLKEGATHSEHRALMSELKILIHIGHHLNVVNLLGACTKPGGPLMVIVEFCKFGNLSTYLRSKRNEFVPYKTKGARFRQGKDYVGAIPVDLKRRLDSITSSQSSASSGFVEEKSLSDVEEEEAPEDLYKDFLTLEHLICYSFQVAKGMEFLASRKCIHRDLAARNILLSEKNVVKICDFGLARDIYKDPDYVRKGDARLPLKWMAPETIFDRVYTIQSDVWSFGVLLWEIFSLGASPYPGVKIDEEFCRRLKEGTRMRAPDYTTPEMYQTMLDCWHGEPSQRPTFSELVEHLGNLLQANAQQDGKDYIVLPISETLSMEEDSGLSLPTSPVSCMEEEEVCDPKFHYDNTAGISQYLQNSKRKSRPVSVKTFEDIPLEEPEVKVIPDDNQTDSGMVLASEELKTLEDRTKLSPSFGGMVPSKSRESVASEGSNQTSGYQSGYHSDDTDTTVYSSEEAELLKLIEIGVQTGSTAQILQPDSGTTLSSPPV
T2 sequence (P08581 25-1390): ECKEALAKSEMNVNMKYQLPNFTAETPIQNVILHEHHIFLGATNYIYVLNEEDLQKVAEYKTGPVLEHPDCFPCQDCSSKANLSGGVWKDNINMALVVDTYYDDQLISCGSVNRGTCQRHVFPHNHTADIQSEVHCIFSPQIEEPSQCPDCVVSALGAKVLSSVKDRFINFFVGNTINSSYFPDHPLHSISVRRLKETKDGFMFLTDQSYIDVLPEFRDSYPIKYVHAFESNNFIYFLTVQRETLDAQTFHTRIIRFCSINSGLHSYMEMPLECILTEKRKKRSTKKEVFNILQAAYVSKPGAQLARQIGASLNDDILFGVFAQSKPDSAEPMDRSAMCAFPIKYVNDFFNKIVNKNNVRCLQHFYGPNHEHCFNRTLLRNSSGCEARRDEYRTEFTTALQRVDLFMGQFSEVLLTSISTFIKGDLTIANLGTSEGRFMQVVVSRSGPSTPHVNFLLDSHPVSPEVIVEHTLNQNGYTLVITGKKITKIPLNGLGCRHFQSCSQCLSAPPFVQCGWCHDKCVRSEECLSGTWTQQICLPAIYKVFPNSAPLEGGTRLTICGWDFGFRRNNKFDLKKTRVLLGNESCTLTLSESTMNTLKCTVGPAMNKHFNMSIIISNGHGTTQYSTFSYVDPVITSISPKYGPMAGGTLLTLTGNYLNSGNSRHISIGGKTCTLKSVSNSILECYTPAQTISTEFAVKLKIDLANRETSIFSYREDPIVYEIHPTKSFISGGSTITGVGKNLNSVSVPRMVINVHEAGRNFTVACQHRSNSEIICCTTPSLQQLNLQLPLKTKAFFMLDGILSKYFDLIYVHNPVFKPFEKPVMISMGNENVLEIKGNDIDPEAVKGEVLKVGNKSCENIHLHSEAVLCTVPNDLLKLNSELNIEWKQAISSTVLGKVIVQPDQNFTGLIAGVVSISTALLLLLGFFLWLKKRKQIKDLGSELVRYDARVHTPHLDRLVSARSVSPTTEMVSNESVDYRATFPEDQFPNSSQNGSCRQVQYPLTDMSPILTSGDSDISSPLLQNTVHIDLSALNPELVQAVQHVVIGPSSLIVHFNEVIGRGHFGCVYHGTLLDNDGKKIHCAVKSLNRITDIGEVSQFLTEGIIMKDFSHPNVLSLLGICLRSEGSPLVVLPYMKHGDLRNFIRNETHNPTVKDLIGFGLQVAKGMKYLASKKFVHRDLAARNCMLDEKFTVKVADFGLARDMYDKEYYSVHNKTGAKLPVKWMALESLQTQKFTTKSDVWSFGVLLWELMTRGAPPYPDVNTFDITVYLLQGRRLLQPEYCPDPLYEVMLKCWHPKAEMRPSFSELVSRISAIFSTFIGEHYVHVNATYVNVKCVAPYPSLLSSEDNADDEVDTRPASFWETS

For the compound `Cl.O=C(Nc1cc(Cl)ccc1F)Nc1cccc2c1ccn2Cc1ccnc2[nH]ccc12` [Example 56, 1-(2-Fluoro-5-chlorophenyl)-3-[1-(1H-pyrrolo[2,3-b]pyridin-4-ylmethyl)-1H-indol-4-yl]urea hydrochloride], the remaining activity at 0.1 µM in assay [1] was at least 70%. Moreover, the “% c-Met kinase activity remains” value in assay [2] is reported as “A (the percentage of kinase activity remains is below 70%)”. Besides, the “Tumor Growth Inhibition (TGI)” value in assay [3] (12.5 mg/kg oral once per day, n = 6 × 14) is “A (the TGI is greater or equal to 50%)”; in assay [3] (25 mg/kg oral once per day, n = 6 × 14) it was “A (the TGI is greater or equal to 50%)”; in assay [3] (setting [5]) it was “A (the TGI is greater or equal to 50%)”; in assay [3] (50 mg/kg oral once per day, n = 6 × 14), “A (the TGI is greater or equal to 50%)”; in assay [3] (100 mg/kg oral once per day, n = 6 × 14), “A (the TGI is greater or equal to 50%)”; in assay [4] (12.5 mg/kg oral once per day, n = 6 × 13), “B (the TGI for the compound of this invention is between 0% and 50%)”. Besides, the “Tumor Growth Inhibition (TGI)” value in assay [4] (25 mg/kg oral once per day, n = 6 × 13) is on record as “A (the TGI is greater or equal to 50%)”; in assay [4] (50 mg/kg oral once per day, n = 3 × 3), “A (the TGI is greater or equal to 50%)”; in assay [4] (50 mg/kg oral once per day, n = 6 × 13) it was “A (the TGI is greater or equal to 50%)”; in assay [4] (100 mg/kg oral once per day, n = 6 × 13), “A (the TGI is greater or equal to 50%)”.

In the case of `Cl.O=C(Nc1cccc(C(F)(F)F)c1)Nc1cccc2c1ccn2Cc1ccnc2[nH]ccc12` [Example 51, 1-(3-Trifluoromethylphenyl)-3-[1-(1H-pyrrolo[2,3-b]pyridin-4-ylmethyl)-1H-indol-4-yl]urea hydrochloride], in assay [1], the remaining activity at 0.1 µM is under 70%. Further, in assay [2], the “% c-Met kinase activity remains” value was “B (the percentage is greater or equal to 70%)”. Besides, the “Tumor Growth Inhibition (TGI)” value in assay [3] (setting [5]) and in assay [4] (setting [5]) was “A (the TGI is greater or equal to 50%)” in each case.
